Where a SMILES comes first, the peptide text is derived from it. The star is where a group is joined. pNA = O=[N+]([O-])c1ccc(N*)cc1; Tos = Cc1ccc(S(=O)(=O)*)cc1
What was measured:
Format in all cases: biochemical
factor IIa = biological target: T1, factor IIa (Homo sapiens, UniProt P00734); experiment: Kinetic constants of substrate hydrolysis, Chromozyme TH vs TosGPR-ANSN (Table A); details: 22° C., 0.02M TBS pH 7.4, 0.15M NaCl
T1 construct: 0.5 nM human thrombin (IIa)
Experimental: (§1) The 6-amino-1-naphthalenesulfonamide detecting group increased the specificity of the overall kinetic efficiency of substrate hydrolysis by thrombin relative to the rate of hydrolysis of the p-nitroanilide substrate chromozyme TH (American Diagnostics). Commercially available substrate (Chromozyme TH, TosGPR-p-NA) was compared to a substrate of the present invention, Tosgly-pro-arg-ANSN(i-C4 H9) (TosGPR-ANSNH(i-C4 H9)) in an assay performed at 22° C. in 0.02M TBS buffer at pH 7.4, containing 0.15M NaCl.

factor Xa [1] = biological target: T2, factor Xa (Homo sapiens, UniProt P00742); experiment: as above; details: 22° C., 0.02M TBS pH 7.4, 0.15M NaCl
Experimental: as §1

factor IXa = factor IXa (Homo sapiens, UniProt P00740); experiment: Fluorogenic enzyme assay (Example 5); parameters: key to Kinetic constants, IXa (symbol b): slow substrate hydrolysis, no kinetic constants calculated; details: for Kinetic constants, IXa (symbol b) / Km / kcat, IXa / kcat/Km, IXa: Table 9; for hydrolysis, IXa (symbol d): at 100 hours; for hydrolysis, IXa (symbol d) / TIME TO 10% HYDROLYSIS (HOURS), IXa: 100 nM enzyme, substrate 1 μM
Experimental: (§2) Enzyme assays (except factor VIIa assays, see below) were conducted in 20 mM Tris, 150 mM NaCl, pH 7.4 (TBS) at room temperature (22° C.). The final volume for all reaction mixtures was 2.0 ml. Fluorogenic substrates were dissolved in DMSO to a stock concentration of 10 mM. The 10 mM stock solution was diluted in TBS to the final working concentration prior to all assays. Enzyme was added to mixtures containing buffer components and substrate and the initial rate of substrate hydrolysis was measured as the change in fluorescent intensity over time, corresponding to the generation of the particular 6-amino-1-naphthalenesulfonamide fluorophore from the provided substrate. Quantitation of substrate hydrolysis was accomplished by establishing a standard curve from the appropriate fluorescent moiety. Fluorescence was monitored (continuously or discontinuously) using a Perkin Elmer fluorescence spectrophotometer, model MPF-44A, equipped with a standard chart recorder. The fluorophore was detected using monochrometers set at an excitation wavelength of 352 nm and an emission wavelength of 470 nm. Light scattering artifacts were minimized using a 399 nm cut off filter in the emission light beam.
The kinetic constants of substrate hydrolysis were determined using the non-linear least squares regression analysis program ENZFITTER (Cambridge, UK). This program was used to iteratively fit initial rates of substrate hydrolysis to the Michaelis-Menten equation and the kinetic constants of substrate hydrolysis (Km) and (kcat) were calculated.

factor Xa [2] = biological target: T2, factor Xa; experiment: Fluorogenic enzyme assay (Example 5); parameters: key to Kinetic constants, Xa (symbol b): slow substrate hydrolysis, no kinetic constants calculated
Procedure, shortened: (§3)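 Initial-rate measurement of fluorogenic substrate cleavage; TBS pH 7.4, room temperature (22° C). Fluorophore detected at ex 352/em 470 nm, quantified by standard curve; Km and kcat obtained by Michaelis-Menten regression.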

thrombin (IIa) = biological target: T3, thrombin (IIa) (Homo sapiens, UniProt P00734); experiment: Fluorogenic enzyme assay (Example 5); parameters: key to Kinetic constants, IIa (symbol b): slow substrate hydrolysis, no kinetic constants calculated; details: for TIME TO 10% HYDROLYSIS (HOURS), IIa: substrate 1 μM
T3 construct: 0.5 nM human thrombin (IIa)
Procedure, shortened: as §3

[3] = biological target: activated protein C (APC) (Homo sapiens, UniProt P04070); experiment: Fluorogenic enzyme assay (Example 5); details: for TIME TO 10% HYDROLYSIS (HOURS), APC: 10 nM enzyme, substrate 1 μM; for Km / kcat /Km, APC / kcat, APC: Table 9
Procedure, shortened: as §3

factor VIIa = biological target: T4, factor VIIa (Homo sapiens, UniProt P08709); experiment: Fluorogenic enzyme assay, relative hydrolysis rates (Table 8); details: at 100 hours; 10 nM enzyme, substrate 1 μM
T4 construct: directly measure the enzymatic activity of factor VIIa in the presence and absence of tissue factor and phospholipid
T4 sequence (P08709 213-466 limits assumed): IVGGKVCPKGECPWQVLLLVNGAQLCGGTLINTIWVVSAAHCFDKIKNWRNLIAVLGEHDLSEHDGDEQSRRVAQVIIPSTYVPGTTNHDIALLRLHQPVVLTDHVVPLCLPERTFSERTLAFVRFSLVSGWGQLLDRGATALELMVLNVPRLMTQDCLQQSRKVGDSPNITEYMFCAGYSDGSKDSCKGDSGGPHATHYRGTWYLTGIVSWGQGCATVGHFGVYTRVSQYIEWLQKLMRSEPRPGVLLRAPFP
T4 sequence (P08709 61-212 limits assumed): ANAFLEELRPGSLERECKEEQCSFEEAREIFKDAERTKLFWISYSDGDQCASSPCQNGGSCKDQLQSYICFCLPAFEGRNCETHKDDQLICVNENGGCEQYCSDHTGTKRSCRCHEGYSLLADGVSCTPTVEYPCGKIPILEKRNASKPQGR
Experimental: as §2
Factor VII assays were conducted in 20 mM HEPES, 150 mM NaCl, 5 mM CaCl2, pH 7.4 (HBS) at 37° C. The final volume for all reactions was 1.6 ml. 6-(Mes-D-Leu-Gly-Arg)amino-1-(N,N-diethyl)naphthalenesulfonamide was dissolved in DMSO to a stock concentration of 10 mM. This 10 mM stock solution of was diluted in HBS to final working concentration prior to all assays. For reactions involving tissue factor (TF) and phospholipid vesicles, recombinant human tissue factor was solubilized in either 0.04% n-dodecyl octaethylene glycol (C12 E8) or 0.8% octyl glucoside. The TF/n-dodecyl octaethylene glycol was then relipidated into PCPS or PC vesicles by a 30 minute incubation step as described by Lawson & Mann, J. Biol. Chem. 266: 11317-11327 (1991). TF/octyl glucoside was relipidated into PC or PCPS vesicles by a thirty minute incubation step followed by exhaustive dialysis. The final concentration of tissue factor used in the studies described here ranged from 2 to 50 nM depending on the nature of the experiment.
Fifteen minutes prior to the start of all reactions factor VIIa was added to the reaction system. This incubation period was followed by the addition of substrate (1 μM to 400 μM) to the mixture to start the reaction. In experiments designed to determine kinetic constants of substrate hydrolysis, 50 nM rVIIa was used when no tissue factor was present in the reaction system, while 0.5 nM rVIIa was used when tissue factor was present in the reaction system. The rate of substrate hydrolysis was measured by change in fluorescence over time, which corresponded with the generation of the 6-amino-1-(N,N-diethyl)naphthalenesulfonamide from the provided substrate. The kinetic constants of 6-(Mes-D-Leu-Gly-Arg)amino-1-(N,N-diethyl)naphthalenesulfonamide hydrolysis as a function of factor VIIa/tissue factor complex assembly are shown in Table 10.

urokinase (u-PA) = urokinase (u-PA) (Homo sapiens, UniProt P00749); experiment: Fluorogenic enzyme assay (Example 5); details: 100 nM enzyme, substrate 1 μM
plasmin (Plm) = plasmin (Plm) (Homo sapiens, UniProt P00747); experiment: Fluorogenic enzyme assay (Example 5); details: 10 nM enzyme, substrate 1 μM
Procedure, shortened: as §3

[4] = biological target: tissue plasminogen activator (t-PA) (Homo sapiens, UniProt P00750); experiment: Fluorogenic enzyme assay (Example 5); details: 100 nM enzyme, substrate 1 μM; for hydrolysis, t-PA (symbol d): at 100 hours
Procedure, shortened: as §3

Chain of activated protein C (APC) (P04070 212-461 limits assumed): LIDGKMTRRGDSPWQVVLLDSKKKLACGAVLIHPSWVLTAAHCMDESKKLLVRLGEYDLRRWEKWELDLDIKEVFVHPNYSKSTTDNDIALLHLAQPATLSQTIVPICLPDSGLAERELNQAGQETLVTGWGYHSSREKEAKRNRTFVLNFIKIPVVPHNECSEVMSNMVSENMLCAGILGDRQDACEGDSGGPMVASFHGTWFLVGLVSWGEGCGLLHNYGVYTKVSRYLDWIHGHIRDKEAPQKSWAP
Chain of activated protein C (APC) (P04070 43-197 limits assumed): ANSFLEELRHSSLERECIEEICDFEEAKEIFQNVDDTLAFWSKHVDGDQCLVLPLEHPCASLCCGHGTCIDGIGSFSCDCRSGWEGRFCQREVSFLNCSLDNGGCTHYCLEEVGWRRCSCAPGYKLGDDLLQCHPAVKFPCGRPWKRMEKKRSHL
Chain of factor IXa (P00740 227-461 limits assumed): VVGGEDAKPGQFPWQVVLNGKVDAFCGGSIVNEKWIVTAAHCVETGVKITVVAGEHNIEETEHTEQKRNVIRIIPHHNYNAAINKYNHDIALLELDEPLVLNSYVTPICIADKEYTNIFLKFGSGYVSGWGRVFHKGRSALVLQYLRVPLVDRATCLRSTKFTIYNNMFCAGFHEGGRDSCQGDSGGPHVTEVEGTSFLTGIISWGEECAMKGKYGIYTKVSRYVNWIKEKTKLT
Chain of factor IXa (P00740 47-191 limits assumed): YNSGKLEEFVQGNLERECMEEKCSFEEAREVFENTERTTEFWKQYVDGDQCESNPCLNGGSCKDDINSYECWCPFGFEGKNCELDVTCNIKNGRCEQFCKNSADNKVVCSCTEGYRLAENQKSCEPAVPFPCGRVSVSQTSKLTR
T2 sequence (P00742 235-488 limits assumed): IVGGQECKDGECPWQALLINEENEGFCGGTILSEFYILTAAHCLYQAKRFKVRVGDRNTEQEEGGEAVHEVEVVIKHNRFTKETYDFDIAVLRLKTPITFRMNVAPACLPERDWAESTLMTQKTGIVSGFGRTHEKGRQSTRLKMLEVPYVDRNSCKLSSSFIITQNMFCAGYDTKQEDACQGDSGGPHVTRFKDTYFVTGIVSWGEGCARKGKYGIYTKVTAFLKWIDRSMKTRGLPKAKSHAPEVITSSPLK
T2 sequence (P00742 41-179 limits assumed): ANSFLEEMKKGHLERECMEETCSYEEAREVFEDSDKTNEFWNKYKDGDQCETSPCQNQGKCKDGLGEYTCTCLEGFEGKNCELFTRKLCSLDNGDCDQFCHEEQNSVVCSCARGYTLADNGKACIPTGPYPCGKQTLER
Chain of tissue plasminogen activator (t-PA) (P00750 36-562, species assumed): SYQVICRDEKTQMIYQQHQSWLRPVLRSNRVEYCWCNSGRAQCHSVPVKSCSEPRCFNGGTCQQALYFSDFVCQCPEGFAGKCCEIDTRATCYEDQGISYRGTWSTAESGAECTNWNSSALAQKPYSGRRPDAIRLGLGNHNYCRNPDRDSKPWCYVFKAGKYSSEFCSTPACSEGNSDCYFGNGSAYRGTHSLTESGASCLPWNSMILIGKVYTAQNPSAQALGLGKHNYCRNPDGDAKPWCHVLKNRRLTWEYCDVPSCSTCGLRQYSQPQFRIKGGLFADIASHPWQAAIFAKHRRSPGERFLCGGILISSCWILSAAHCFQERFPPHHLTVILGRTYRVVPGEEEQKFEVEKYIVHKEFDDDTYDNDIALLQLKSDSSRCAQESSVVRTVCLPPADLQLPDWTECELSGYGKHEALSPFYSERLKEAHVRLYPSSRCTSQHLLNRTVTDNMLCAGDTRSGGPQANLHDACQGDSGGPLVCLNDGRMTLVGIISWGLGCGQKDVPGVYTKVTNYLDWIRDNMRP
Chain of plasmin (Plm) (P00747 581-810 limits assumed, species assumed): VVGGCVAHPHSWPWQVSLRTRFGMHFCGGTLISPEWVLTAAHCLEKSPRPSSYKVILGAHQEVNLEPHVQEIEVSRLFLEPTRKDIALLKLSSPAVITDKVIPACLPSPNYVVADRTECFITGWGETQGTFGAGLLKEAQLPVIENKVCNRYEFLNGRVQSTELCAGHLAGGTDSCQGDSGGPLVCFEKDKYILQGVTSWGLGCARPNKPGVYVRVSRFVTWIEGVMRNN
Chain of plasmin (Plm) (P00747 97-580 limits assumed, species assumed): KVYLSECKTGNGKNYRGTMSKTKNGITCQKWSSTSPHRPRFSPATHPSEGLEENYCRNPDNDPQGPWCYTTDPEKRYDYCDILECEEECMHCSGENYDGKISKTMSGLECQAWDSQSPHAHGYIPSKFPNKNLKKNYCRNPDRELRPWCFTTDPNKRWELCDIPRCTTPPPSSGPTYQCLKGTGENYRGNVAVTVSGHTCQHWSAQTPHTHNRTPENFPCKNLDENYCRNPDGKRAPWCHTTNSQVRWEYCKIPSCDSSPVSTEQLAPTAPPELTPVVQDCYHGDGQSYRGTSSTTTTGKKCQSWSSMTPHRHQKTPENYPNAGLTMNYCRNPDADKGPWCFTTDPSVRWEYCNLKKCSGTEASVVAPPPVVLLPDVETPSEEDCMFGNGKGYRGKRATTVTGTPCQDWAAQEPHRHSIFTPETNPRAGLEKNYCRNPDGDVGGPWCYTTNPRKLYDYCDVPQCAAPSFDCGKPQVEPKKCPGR

| Structure (SMILES) | Kcat (factor IIa) | Km (factor IIa) [µM] | Kcat (factor Xa [1]) [s⁻¹] | Km (factor Xa [1]) [µM] | Kinetic constants, IXa (symbol b) (factor IXa) | hydrolysis, IXa (symbol d) (factor IXa) | TIME TO 10% HYDROLYSIS (HOURS), Xa (factor Xa [2]; 10 nM enzyme, substrate 1 μM) [h] | Km (factor Xa [2]; Table 9) [µM] | kcat /Km, Xa (factor Xa [2]; Table 9) [M⁻¹ s⁻¹] | kcat, Xa (factor Xa [2]; Table 9) [s⁻¹] | TIME TO 10% HYDROLYSIS (HOURS), IIa (thrombin (IIa); 10 nM enzyme) [h] | Km (thrombin (IIa); Table 9) [µM] | kcat, IIa (thrombin (IIa); Table 9) [s⁻¹] | TIME TO 10% HYDROLYSIS (HOURS), APC [3] [h] | Km [3] [µM] | kcat /Km, APC [3] [M⁻¹ s⁻¹] | kcat, APC [3] [s⁻¹] | hydrolysis, VIIa (symbol d) (factor VIIa) | TIME TO 10% HYDROLYSIS (HOURS), u-PA (urokinase (u-PA)) [h] | TIME TO 10% HYDROLYSIS (HOURS), Plm (plasmin (Plm)) [h] | also measured |
| --- | --- | --- | --- | --- | --- | --- | --- | --- | --- | --- | --- | --- | --- | --- | --- | --- | --- | --- | --- | --- | --- |
| Cc1ccc(S(=O)(=O)NCC(=O)N2CCC[C@H]2C(=O)N[C@@H](CCCNC(=N)N)C(=O)Nc2ccc([N+](=O)[O-])cc2)cc1 [Chromozyme TH, reference compound] (Tos-Gly-Pro-Arg-pNA) | 14.1 | 13.8 | 244 | 364 |  |  |  |  |  |  |  |  |  |  |  |  |  |  |  |  |  |
| CCCNS(=O)(=O)c1cccc2cc(NC(=O)[C@H](CCCNC(=N)N)NC(=O)[C@H](Cc3ccccc3)NC(=O)[C@@H]3CCCN3)ccc12.Cl.Cl [PFR-ANSNHC3 H7] |  |  |  |  | b | d (hydrolysis at 100 hours was less than 10%.) | 1.25 | 667 | 2000 | 1.33 | 5 | 600 | 0.36 | 0.25 | 240 | 19600 | 4.7 | d (hydrolysis at 100 hours was less than 10%.) | 6 | 13 | kcat /Km, IIa (thrombin (IIa); Table 9): 600 M⁻¹ s⁻¹; hydrolysis, t-PA (symbol d) [4]: d (hydrolysis at 100 hours was less than 10%.) |
| Cc1ccc(S(=O)(=O)NCC(=O)N2CCC[C@H]2C(=O)N[C@@H](CCCNC(=N)N)C(=O)Nc2ccc3c(S(=O)(=O)NCC(C)C)cccc3c2)cc1 [TosGPR-ANSNH(i-C4 H9)] | 45.6 | 10.5 | 11.2 | 132 |  |  | 0.05 | 35.3 | 6800 | 2.4 |  | 11 | 52.6 | 0.02 | 800 | 150000 | 120 | d (hydrolysis at 100 hours was less than 10%.) | 0.01 | 0.25 | TIME TO 10% HYDROLYSIS (HOURS), IXa (factor IXa): 42 h; Km (factor IXa): 123 µM; kcat, IXa (factor IXa): 0.3 s⁻¹; kcat/Km, IXa (factor IXa): 2400 M⁻¹ s⁻¹; TIME TO 10% HYDROLYSIS (HOURS), IIa (thrombin (IIa); 1 nM enzyme (footnote c)): 0.01 h; TIME TO 10% HYDROLYSIS (HOURS), t-PA [4]: 2 h |
| CC(C)C[C@@H](NC(=O)OCc1ccccc1)C(=O)N1CCC[C@H]1C(=O)N[C@@H](CCCNC(=N)N)C(=O)Nc1ccc2c(S(=O)(=O)N3CCCCC3)cccc2c1 [ZD-LPR-ANSN(CH2)5] |  |  |  |  |  |  | 0.02 | 26.3 | 133000 | 3.5 |  | 4.2 | 16.1 | 0.5 | 246 | 28900 | 7.1 | d (hydrolysis at 100 hours was less than 10%.) | 1 | 0.08 | TIME TO 10% HYDROLYSIS (HOURS), IXa (factor IXa): 7 h; Km (factor IXa): 141 µM; kcat, IXa (factor IXa): 0.39 s⁻¹; kcat/Km, IXa (factor IXa): 2750 M⁻¹ s⁻¹; TIME TO 10% HYDROLYSIS (HOURS), IIa (thrombin (IIa); 1 nM enzyme (footnote c)): 0.01 h; TIME TO 10% HYDROLYSIS (HOURS), t-PA [4]: 1 h |
| N=C(N)NCCC[C@H](NC(=O)CNC(=O)CNC(=O)OCc1ccccc1)C(=O)N[C@@H](CCCNC(=N)N)C(=O)Nc1ccc2c(S(=O)(=O)NC3CCCCC3)cccc2c1 [ZGGRR-ANSNH(cyclo-C6 H11)] |  |  |  |  | b | d (hydrolysis at 100 hours was less than 10%.) |  |  |  |  | 93 |  |  | 0.6 | 320 | 19300 | 6.2 | d (hydrolysis at 100 hours was less than 10%.) |  | 47 | Kinetic constants, Xa (symbol b) (factor Xa [2]; Table 9): b; hydrolysis, Xa (symbol d) (factor Xa [2]; at 100 hours, 10 nM enzyme, substrate 1 μM): d (hydrolysis at 100 hours was less than 10%.); Kinetic constants, IIa (symbol b) (thrombin (IIa); Table 9): b; hydrolysis, u-PA (symbol d) (urokinase (u-PA); at 100 hours): d (hydrolysis at 100 hours was less than 10%.); hydrolysis, t-PA (symbol d) [4]: d (hydrolysis at 100 hours was less than 10%.) |

Source: US5399487A, “6-peptidylamino-1-naphthalenesulfonamides useful as fluorogenic proteolytic enzyme substrates” (Haematologic Technologies, Inc., priority 1993, dated 1995)
